Several values for one entry are separate records, joined by “and”; a condition that tells them apart may be missing. Equal entries are not always repeated. Where two headings read alike, the source gives them in different places.
Columns and labels:
MCF-7 cells = test: MCF-7 cell proliferation, CTG reagent, 6-day treatment, single agents and combination (CompuSyn synergy analysis); assay type: cell-based
Protocol: The effect of 6-day compound treatment on cell proliferation was measured using CTG reagent.

Z-138 cells = test: Z-138 cell proliferation, CTG reagent, 3-day treatment, single agents and combination (CompuSyn synergy analysis); assay type: cell-based
Protocol: Z-138 cells were treated with serial dilutions of Compound-44A (CDK7 inhibitor), serial dilutions of venetoclax individually and in combination for 3 days. The effect of 3-day compound treatment on cell proliferation was measured using CTG reagent. Percentage inhibition of cell proliferation in individual (Compound-44A, venetoclax) and combination treatments (Compound-44A+venetoclax) were analyzed using CompuSyn software to assess synergy.

Question: What does the source list for `CC(C)[C@H](C(=O)Nc1cc(C2CC2)[nH]n1)c1cccc(-c2ccc(NC(=O)/C=C/CN3CCOCC3)nc2)c1` (single isomer, unassigned) [Compound-44A]?
Answer: % Inhibition of proliferation (MCF-7 cells; Compound-44A 0.006272 nM, Day-6): −4.1% and −1.7% and 4.8%; % Inhibition of proliferation (MCF-7 cells; Compound-44A 0.018817 nM, Day-6): 4.6% and 3.8%; % Inhibition of proliferation (MCF-7 cells; Compound-44A 0.056450 nM, Day-6): −11.5% and −2.9% and −2.8%; % Inhibition of proliferation (MCF-7 cells; Compound-44A 4.5725 nM, Day-6): 12.9% and 11.7%; % Inhibition of proliferation (MCF-7 cells; Compound-44A 13.7174 nM, Day-6): 44.3% and 47.5%; % Inhibition of proliferation (MCF-7 cells; Compound-44A 41.1523 nM, Day-6): 75.4% and 75.5%; % Inhibition of proliferation (MCF-7 cells; Compound-44A 123.4568 nM, Day-6): 84%; % Inhibition of proliferation (MCF-7 cells; Compound-44A 370.3704 nM, Day-6): 87.5% and 86.2%; % Inhibition of proliferation (MCF-7 cells; Compound-44A 1111.11 nM, Day-6): 106.1%; % Inhibition of proliferation (MCF-7 cells; Compound-44A 3333.333 nM, Day-6): 106.1% and 106.3%; % Inhibition of proliferation (MCF-7 cells; Compound-44A 10000 nM, Day-6): 106.4% and 106.3%; % Inhibition of proliferation (MCF-7 cells; Compound-44A 30000 nM, Day-6): 112.3%; inhibition at 0.0005 µM (MCF-7 cells; Homo sapiens, MCF7, 144 h, Fulvestrant 0 nM + Compound-44A 0.50 nM, 6 days): 4%; inhibition at 0.0015 µM (MCF-7 cells; Homo sapiens, MCF7, 144 h, Fulvestrant 0 nM + Compound-44A 1.50 nM, 6 days): 4%; inhibition at 0.041 µM (MCF-7 cells; Homo sapiens, MCF7, 144 h, Fulvestrant 0 nM + Compound-44A 41.00 nM, 6 days): 74%; inhibition at 0.123 µM (MCF-7 cells; Homo sapiens, MCF7, 144 h, Fulvestrant 0 nM + Compound-44A 123.00 nM, 6 days): 83%; inhibition at 0.3703 µM (MCF-7 cells; Homo sapiens, MCF7, 144 h, Fulvestrant 0 nM + Compound-44A 370.30 nM, 6 days): 87%; inhibition at 18.82 pM (MCF-7 cells; Homo sapiens, MCF7, Compound-44A 0.018817 nM, Day-6): 2.9%; inhibition at 0.0045725 µM (MCF-7 cells; Homo sapiens, MCF7, Compound-44A 4.5725 nM, Day-6): 13.6%; inhibition at 0.0137174 µM (MCF-7 cells; Homo sapiens, MCF7, Compound-44A 13.7174 nM, Day-6): 48.3%; inhibition at 0.0411523 µM (MCF-7 cells; Homo sapiens, MCF7, Compound-44A 41.1523 nM, Day-6): 71.6%; inhibition at 0.123457 µM (MCF-7 cells; Homo sapiens, MCF7, Compound-44A 123.4568 nM, Day-6): 81.6%; inhibition at 0.37037 µM (MCF-7 cells; Homo sapiens, MCF7, Compound-44A 370.3704 nM, Day-6): 88.5%; inhibition at 1.11111 µM (MCF-7 cells; Homo sapiens, MCF7, Compound-44A 1111.11 nM, Day-6): 105%; inhibition at 3.33333 µM (MCF-7 cells; Homo sapiens, MCF7, Compound-44A 3333.333 nM, Day-6): 106%; inhibition at 10 µM (MCF-7 cells; Homo sapiens, MCF7, Compound-44A 10000 nM, Day-6): 106%; inhibition at 30 µM (MCF-7 cells; Homo sapiens, MCF7, Compound-44A 30000 nM, Day-6): 112%; synergy in inhibiting the proliferation of breast cancer cell line MCF-7 (MCF-7 cells; in combination with fulvestrant): synergy; inhibition of proliferation in MCF-7 cells (MCF-7 cells; single agent, serial dilutions, 6 days): dose dependent inhibition of proliferation; % Inhibition of proliferation (Z-138 cells; Compound-44A 0.0015 μM, Day-3): −1.8% and 3.5%; % Inhibition of proliferation (Z-138 cells; Compound-44A 0.0046 μM, Day-3): 5.8% and 5.6% and −3.4%; % Inhibition of proliferation (Z-138 cells; Compound-44A 0.0412 μM, Day-3): 63.6% and 62.2%; % Inhibition of proliferation (Z-138 cells; Compound-44A 0.1235 μM, Day-3): 72.1% and 74.5%; % Inhibition of proliferation (Z-138 cells; Compound-44A 0.3704 μM, Day-3): 77.2% and 77.3%; % Inhibition of proliferation (Z-138 cells; Compound-44A 1.1111 μM, Day-3): 99.3% and 98.8%; % Inhibition of proliferation (Z-138 cells; Compound-44A 3.3333 μM, Day-3): 99.9%; % Inhibition of proliferation (Z-138 cells; Compound-44A 10.0000 μM, Day-3): 99.9%; inhibition at 0.0015 µM (Z-138 cells; Homo sapiens, Z-138, 72 h, Venetoclax 0.0 μM + Compound-44A 0.0015 μM, 3 days): 2%; inhibition at 0.0412 µM (Z-138 cells; Homo sapiens, Z-138, 72 h, Venetoclax 0.0 μM + Compound-44A 0.0412 μM, 3 days, read-out: % Inhibition in proliferation): 63%; inhibition at 0.1235 µM (Z-138 cells; Homo sapiens, Z-138, 72 h, Venetoclax 0.0 μM + Compound-44A 0.1235 μM, 3 days, read-out: % Inhibition in proliferation): 73%; inhibition at 0.3704 µM (Z-138 cells; Homo sapiens, Z-138, 72 h, Venetoclax 0.0 μM + Compound-44A 0.3704 μM, 3 days, read-out: % Inhibition in proliferation): 77%; inhibition at 1.1111 µM (Z-138 cells; Homo sapiens, Z-138, 72 h, Venetoclax 0.0 μM + Compound-44A 1.1111 μM, 3 days, read-out: % Inhibition in proliferation): 99%; inhibition at 0.0412 µM (Z-138 cells; Homo sapiens, Z-138, Compound-44A 0.0412 μM, Day-3, read-out: % Inhibition of proliferation): 62.1%; inhibition at 0.1235 µM (Z-138 cells; Homo sapiens, Z-138, Compound-44A 0.1235 μM, Day-3, read-out: % Inhibition of proliferation): 72.4%; inhibition at 0.3704 µM (Z-138 cells; Homo sapiens, Z-138, Compound-44A 0.3704 μM, Day-3, read-out: % Inhibition of proliferation): 76.6%; inhibition at 1.1111 µM (Z-138 cells; Homo sapiens, Z-138, Compound-44A 1.1111 μM, Day-3, read-out: % Inhibition of proliferation): 99.4%; inhibition at 3.3333 µM (Z-138 cells; Homo sapiens, Z-138, Compound-44A 3.3333 μM, Day-3): 100%; inhibition at 10 µM (Z-138 cells; Homo sapiens, Z-138, Compound-44A 10.0000 μM, Day-3): 100%; synergy in inhibiting the proliferation of leukemia cancer cell line Z-138 (Z-138 cells; in combination with venetoclax): synergy; inhibition of proliferation in Z-138 cells (Z-138 cells; single agent, serial dilutions, 3 days): dose dependent inhibition of proliferation
